These results are taken from US20030135023A1, “Peptide structures useful for competitive modulation of dipeptidyl peptidase IV catalysis” (priority 2001, published 2003).

Assay [1] has as its target T1, purified porcine DP IV (Sus scrofa, UniProt P22411). The experiment in a line: Determination of Ki-values, Gly-Pro-pNA cleavage by DP IV. The class given is biochemical. The following applies: Gly-Pro-pNA 0.05-0.4 mM. The method, then:
(§1) 100 μl inhibitor stock solution were mixed with 100 μl buffer (HEPES pH 7.6) and 50 μl substrate (Gly-Pro-pNA, final concentration 0.4 mM) and preincubated at 30° C. Reaction was started by addition of 20 μl purified porcine DP IV. Formation of the product pNA was measured at 405 nm over 10 min using the HTS 7000 Plus plate reader (Perkin Elmer) and slopes were calculated. The final inhibitor concentrations ranged between 1 mM and 30 nM.
Calculations were performed using the GraFit Software.

The target in assay [2] is T1, purified porcine DP IV. In words: Determination of IC50-values, Gly-Pro-pNA cleavage by DP IV. The following applies: Gly-Pro-pNA 0.4 mM, HEPES pH 7.6, 30° C.; read-out: IC50. The format is biochemical. As for the experimental part: as §1
For calculation of IC50-values GraFit 4.0.13 (Erithacus Software) was used.

Assay [3] relates to diabetic Zucker rats (fa/fa). In words: Oral glucose tolerance test (OGTT) in diabetic Zucker rats. The class given is in vivo. The following applies: 100 mg/kg b.w. p.o.; for Improvement of glucose tolerance: AUC test compound vs AUC Control; for AUC test compound (glucose, OGTT): OGTT 2 g/kg glucose. The method, then: N=30 male Zucker rats (fa/fa), mean age 11 weeks (5-12 weeks), mean body weight 350 g (150-400 g), were purchased from Charles River (Sulzfeld, Germany). They were kept for >12 weeks until all the fatty Zucker rats had the characteristics of manifest Diabetes mellitus.
After overnight fasting, the fatty Zucker rats were given placebo, positive control and test substance, respectively, via feeding tube orally (15 G, 75 mm; Fine Science Tools, Heidelberg, Germany) at −10 min. An oral glucose tolerance test (OGTT) with 2 g/kg b.w. glucose as a 40% solution (B. Braun Melsungen, Melsungen, Germany) was implemented at ±0 min. The glucose was administered via a second feeding tube. Arterial blood samples from the carotid catheter were collected at −30 min, −15 min, ±0 min and at 5, 10, 15, 20, 30, 40, 60, 90 and 120 min into 20 μl glass capillaries, which were placed in standard tubes filled with 1 ml solution for hemolysis (blood glucose measurement).
Blood glucose: Glucose levels were measured using the glucose oxidase procedure (Super G Glukosemeβgerät; Dr. Müller Gerätebau, Freital, Germany).

Assay [4] has as its target T2, plasma DP IV (Rattus norvegicus, UniProt P14740).
T2 construct: The assay mixture consisted of 80 μl reagent and 20 μl plasma; from tissue; host or cells: plasma of Wistar rats
The experiment in a line: Plasma DP IV activity after intravasal and oral administration in Wistar rats. The format is in vivo. The following applies: rat, Wistar rats, 100 mg/kg. As for the experimental part: Rats with intact catheter function were given the test substances intravasal (intraarterial) or oral, respectively, in random order (N=3 Wistar rats in each group). As positive control, […]. isoleucine thiazolidine*fumarate were administered intravasal.
After overnight fasting, 100 μl samples of heparinized arterial blood were collected at −30, −5, and 0 min into ice-cooled Eppendorf tubes (see below). The test substances were dissolved freshly in 1.0 ml saline (0.154 mol/l) and were given at 0 min either oral via a feeding tube ([…], 75 mm; Fine Science Tools, Heidelberg, Germany) or intravasal. For the intravasal route, the catheter was immediately flushed with 30 μl saline and an additional 1 ml of saline was given orally via the feeding tube.
Arterial blood samples were taken thereafter at 5, 10 (only in a limited number of experiments), 20, 40, 60 and 120 min from the carotid catheter of the conscious unrestrained rats and were always given into ice cooled Eppendorf tubes (Eppendorf-Netheler-Hinz, Hamburg, Germany) filled with 10 μl 1 M citrate buffer pH 3.0 for prevention of further hydrolysis of tripeptides by plasma DP IV activity. Eppendorf tubes were centrifuged immediately (12000 rpm for 2 min, Hettich Zentrifuge EBA 12, Tuttlingen; Germany): The plasma fractions were store on ice until analysis or were deeply frozen at −20 ° C. until analysis.
Plasma DP IV activity: The assay mixture consisted of 80 μl reagent and 20 μl plasma. Kinetic measurements of the formation of the yellow product 4-nitroaniline were performed at 390 nm for 1 min at 30° C. after 2 min pre-incubation at the same temperature. The activity was expressed as arbitrary units [AU] and DP IV activity [mU/ml].
The absolute values of plasma DP IV activity, the relative change of plasma DP IV activity and the time and extent of maximal inhibition were calculated. Data presentation included the presentation of area under the curve (AUC), which was used for evaluation of extent of inhibition of plasma DP IV activity during the two hours of observation. AUC was calculated using the trapezoidal rule.
To compare relative changes of parameters under the conditions of different initial values of DP IV activity an uniform standardised mean (values) was set up at the beginning of the test (see Figures and Tables).
Statistical evaluations were performed with Microsoft Excel® 97. All variables are presented as mean and standard deviation (SD). Treatment groups were compared by Student's t-test, within-group changes by paired t-test. Two-tailed values of p<0.05 were considered significant.

Where two headings read alike, the source gives them in different places. Square brackets hold non-standard residues; d marks the D form. Peptide text beside a SMILES is read from it. * marks the point of attachment. aIle = CC[C@@H](C)[C@H](N)C(=O)O; Tic = O=C(O)[C@@H]1Cc2ccccc2CN1; Aoc(2) = CCCCCC[C@H](N)C(=O)O; Phg = N[C@H](C(=O)O)c1ccccc1; Tle = CC(C)(C)[C@H](N)C(=O)O; Pip = O=C(O)[C@@H]1CCCCN1; Nle = CCCC[C@H](N)C(=O)O; Orn = NCCC[C@H](N)C(=O)O; Aze = O=C(O)[C@@H]1CCN1; Nva = CCC[C@H](N)C(=O)O; Abu = CC[C@H](N)C(=O)O; Bn = c1ccc(C*)cc1

T1 sequence (P22411 whole entry): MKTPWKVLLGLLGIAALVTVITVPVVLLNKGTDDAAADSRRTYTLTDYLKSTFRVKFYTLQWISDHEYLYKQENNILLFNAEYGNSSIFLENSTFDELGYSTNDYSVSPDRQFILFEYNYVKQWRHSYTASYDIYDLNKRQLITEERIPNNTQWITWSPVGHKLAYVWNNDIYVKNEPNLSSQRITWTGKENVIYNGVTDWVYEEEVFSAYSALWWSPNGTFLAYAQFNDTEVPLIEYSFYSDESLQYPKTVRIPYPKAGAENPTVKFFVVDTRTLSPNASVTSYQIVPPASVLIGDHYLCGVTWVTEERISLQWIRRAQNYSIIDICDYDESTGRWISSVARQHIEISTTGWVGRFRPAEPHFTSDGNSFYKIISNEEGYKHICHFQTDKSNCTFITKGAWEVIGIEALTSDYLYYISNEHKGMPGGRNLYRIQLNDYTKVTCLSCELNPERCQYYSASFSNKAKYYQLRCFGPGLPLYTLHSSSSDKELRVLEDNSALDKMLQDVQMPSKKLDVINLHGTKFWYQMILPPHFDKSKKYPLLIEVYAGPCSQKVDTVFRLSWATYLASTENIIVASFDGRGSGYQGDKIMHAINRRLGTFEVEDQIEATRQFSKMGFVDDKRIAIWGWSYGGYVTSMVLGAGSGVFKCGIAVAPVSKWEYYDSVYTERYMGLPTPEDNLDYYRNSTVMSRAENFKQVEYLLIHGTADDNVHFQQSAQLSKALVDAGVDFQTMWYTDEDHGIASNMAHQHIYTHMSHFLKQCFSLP
T2 sequence (P14740 37-767 limits assumed): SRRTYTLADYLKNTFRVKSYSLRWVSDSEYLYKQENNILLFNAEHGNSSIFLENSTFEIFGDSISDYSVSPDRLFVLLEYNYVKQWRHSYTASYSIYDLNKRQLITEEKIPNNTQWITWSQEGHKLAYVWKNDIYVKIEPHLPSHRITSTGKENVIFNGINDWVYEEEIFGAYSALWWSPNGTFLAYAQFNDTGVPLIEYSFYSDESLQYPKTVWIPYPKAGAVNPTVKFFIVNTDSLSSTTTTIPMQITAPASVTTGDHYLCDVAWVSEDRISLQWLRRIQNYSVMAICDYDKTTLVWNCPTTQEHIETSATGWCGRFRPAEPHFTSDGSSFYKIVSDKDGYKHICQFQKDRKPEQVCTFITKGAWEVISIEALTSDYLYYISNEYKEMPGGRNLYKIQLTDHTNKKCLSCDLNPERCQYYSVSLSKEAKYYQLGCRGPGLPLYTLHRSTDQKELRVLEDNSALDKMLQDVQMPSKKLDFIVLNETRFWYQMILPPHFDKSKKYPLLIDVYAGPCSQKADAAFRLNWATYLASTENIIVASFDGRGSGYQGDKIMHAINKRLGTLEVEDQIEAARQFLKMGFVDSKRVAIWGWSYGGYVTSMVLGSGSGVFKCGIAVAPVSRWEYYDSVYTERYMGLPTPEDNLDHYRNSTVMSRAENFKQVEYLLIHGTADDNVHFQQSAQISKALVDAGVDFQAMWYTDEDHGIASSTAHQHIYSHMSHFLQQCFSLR

Consider `CCCCCC[C@H](N)C(=O)N1CCC[C@H]1C(=O)N[C@H](C(=O)O)[C@@H](C)CC` [AOA-Pro-Ile, 2-Amino octanoic acid-Pro-Ile] (H-[Aoc(2)]-Pro-Ile-OH), for which the Ki in assay [1] is 12.6 µM. In addition, the IC50 in assay [2] was 42.1 µM.

`CC[C@H](N)C(=O)N1CCC[C@H]1C(=O)N[C@H](C(=O)O)[C@@H](C)CC` [Abu-Pro-Ile] (H-[Abu]-Pro-Ile-OH; N-terminus and C-terminus assumed): the Ki in assay [1] was 8.75 µM. Further, the IC50 in assay [2] amounted to 34.3 µM.

In the case of `CC[C@H](C)[C@H](NC(=O)[C@@H]1CCCN1C(=O)[C@@H]1CCN1)C(=O)O` [Aze−Pro-Ile, Aze-Pro-Ile] (H-[Aze]-Pro-Ile-OH; N-terminus and C-terminus assumed), the Ki in assay [1] is 20.5 µM. For the same compound, the IC50 in assay [2] was determined as 72.8 µM.

Compound `CC[C@H](C)[C@H](N)C(=O)N1CCC[C@H]1C(=O)N[C@H](C(=O)O)C(C)(C)C` [Ile-Pro-t-butyl-Gly] (H-Ile-Pro-[Tle]-OH; N-terminus and C-terminus assumed) registered a Ki in assay [1] of 18.9 µM. For the same compound, in assay [3], the “Improvement of glucose tolerance” value amounted to 5.3% and the “AUC test compound (glucose, OGTT)” value amounted to 819.5 mmol·min/L. The IC50 in assay [2] was 82.3 µM.

Compound `CC[C@@H](C)[C@H](NC(=O)[C@@H]1CCCN1C(=O)[C@@H](N)[C@@H](C)CC)C(=O)O` [Ile−Pro-(allo)Ile, Ile-Pro-allo-Ile] registered a Ki in assay [1] of 5.22 µM. Besides, the IC50 in assay [2] was 15.4 µM.

In turn, `CCCC[C@H](N)C(=O)N1CCC[C@H]1C(=O)N[C@H](C(=O)O)[C@@H](C)CC` [Nle−Pro-Ile, Nle-Pro-Ile] (H-[Nle]-Pro-Ile-OH; N-terminus and C-terminus assumed) returned a Ki in assay [1] of 9.6 µM. For the same compound, the IC50 in assay [2] worked out at 21.9 µM.

In the case of `CCC[C@H](N)C(=O)N1CCC[C@H]1C(=O)N[C@H](C(=O)O)[C@@H](C)CC` [Nva-Pro-Ile] (H-[Nva]-Pro-Ile-OH; N-terminus and C-terminus assumed), affinity in assay [1] was put at a Ki of 6.17 µM. The IC50 in assay [2] was determined as 24.9 µM.

As to `CC[C@H](C)[C@H](NC(=O)[C@@H]1CCCN1C(=O)[C@@H](N)CCCN)C(=O)O` [Orn-Pro-Ile] (H-[Orn]-Pro-Ile-OH; N-terminus and C-terminus assumed), in assay [2], the IC50 is 216 µM.

In the case of `CC[C@H](C)[C@H](NC(=O)[C@@H]1CCCN1C(=O)[C@@H](N)c1ccccc1)C(=O)O` [Phg-Pro-Ile] (H-[Phg]-Pro-Ile-OH; N-terminus and C-terminus assumed), the IC50 in assay [2] amounted to 154 µM.

`CC[C@H](C)[C@H](NC(=O)[C@@H]1CCCN1C(=O)[C@@H]1CCCCN1)C(=O)O` [Pip-Pro-Ile] (H-[Pip]-Pro-Ile-OH; N-terminus and C-terminus assumed): the IC50 in assay [2] was above 100000 µM.

In assay [1], `CC[C@H](C)[C@H](NC(=O)[C@@H]1CCCN1C(=O)[C@@H](N)COCc1ccccc1)C(=O)O` [Ser(Bzl)-Pro-Ile] (H-Ser(Bn)-Pro-Ile-OH; N-terminus and C-terminus assumed) came in with a Ki of 21.6 µM. The IC50 in assay [2] turned out to be 67.8 µM.

Take `CC[C@H](C)[C@H](NC(=O)[C@@H]1CCCN1C(=O)[C@@H]1Cc2ccccc2CN1)C(=O)O` [Tic-Pro-Ile] (H-[Tic]-Pro-Ile-OH; N-terminus and C-terminus assumed): the IC50 in assay [2] amounted to 800 µM.

The compound `CC[C@@H](C)[C@H](NC(=O)[C@@H]1CCCN1C(=O)[C@@H](N)Cc1ccc(O)cc1)C(=O)O` [Tyr-Pro-(allo)Ile, Tyr-Pro-allo-Ile] (H-Tyr-Pro-[aIle]-OH; N-terminus and C-terminus assumed) displayed a Ki in assay [1] of 18.2 µM. In addition, the IC50 in assay [2] was found to be 64.1 µM.

Compound `CC[C@@H](C)[C@H](NC(=O)[C@@H]1CCCN1C(=O)[C@@H](N)C(C)C)C(=O)O` [Val-Pro-(allo)Ile, Val-Pro-allo-Ile] registered a Ki in assay [1] of 9.54 µM. Moreover, in assay [2], the IC50 was 18 µM.

Turning to `CC(C)[C@H](N)C(=O)N1CCC[C@H]1C(=O)N[C@H](C(=O)O)C(C)(C)C` [Val-Pro-t-butyl-Gly] (H-Val-Pro-[Tle]-OH; N-terminus and C-terminus assumed), in assay [1], the affinity corresponds to a Ki of 19.6 µM. In assay [3], the “Improvement of glucose tolerance” value is 16.5% and the “AUC test compound (glucose, OGTT)” value is 722.4 mmol·min/L.

As for `CC(C)(C)[C@H](N)C(=O)N1CCC[C@H]1C(=O)NCC(=O)O` [t-butyl-Gly-Pro-Gly] (H-[Tle]-Pro-Gly-OH; N-terminus and C-terminus assumed), the affinity in assay [1], expressed as Ki, was 15.1 µM. Moreover, the IC50 in assay [2] was determined as 56.3 µM.

For the compound `CC[C@H](C)[C@H](NC(=O)[C@@H]1CCCN1C(=O)[C@@H](N)C(C)(C)C)C(N)=O` [t-butyl-Gly-Pro-Ile-NH2, t-butyl-Gly-Pro-Ile-amide] (H-[Tle]-Pro-Ile-NH2; N-terminus assumed), in assay [1], the affinity corresponds to a Ki of 5.6 µM. For the same compound, the IC50 in assay [2] stood at 22.9 µM.

In turn, `CC(C)[C@H](NC(=O)[C@@H]1CCCN1C(=O)[C@@H](N)C(C)(C)C)C(=O)O` [t-butyl-Gly-Pro-Val] (H-[Tle]-Pro-Val-OH; N-terminus and C-terminus assumed) displayed a Ki in assay [1] of 3.1 µM. Besides, in assay [2], the IC50 was 13.8 µM. Further, the inhibition at 100 mg/kg is 72% in assay [4] (iv, i.v., read-out: DPIV inhibition at tmax, i.v.) and 25% in assay [4] (po, p.o., read-out: DPIV inhibition at tmax, p.o.).

As to `CC(C)(C)[C@H](N)C(=O)N1CCC[C@H]1C(=O)N[C@H](C(=O)O)C(C)(C)C` [t-butyl-Gly-Pro-t-butyl-Gly] (H-[Tle]-Pro-[Tle]-OH; N-terminus and C-terminus assumed), the Ki in assay [1] was 14.1 µM. Further, the IC50 in assay [2] was determined as 24.5 µM.

By Ki is commonly meant the equilibrium dissociation constant of an inhibitor or competing ligand from its target. A high value points to a looser hold on the target. What is called IC50 is the concentration at which inhibition is half-maximal. As a reminder, the inhibition is the percentage by which the read-out fell short of the control.
